Experimental data as given in patent US5358947A, “Angiotensin II receptor blocking 2,3-substituted pyrazolo[1,5-a]-1,3,5-triazin-4(3H)-ones” (American Cyanamid Company, priority 1993, dated 1994).
“And” between values parts separate entries of the source, which are not always exact repeats. Equal entries are not always repeated.

Tested on: ANGIOTENSIN II (AII) VASOPRESSOR RESPONSE
Experiment: AII Challenge: angiotensin II (AII) vasopressor response in conscious rats
Assay type: in vivo
Set-up: Response After AII / Change / Average Change: unit not given here
Details: for Response After AII / Change / Control Before AII: individual rat; for Control Before AII: in mmHg (unit assumed); for % Inhibition / Average Change: n = 2
Description: By administering a compound of this invention to a rat, and then challenging with angiotensin II, a blockage of the vasopressor response is realized.
Conscious Male Okamoto-Aoki SHR, 16-20 weeks old, weighing approximately 330 g are purchased from Charles River Labs (Wilmington, Mass.). Conscious rats are restrained in a supine position with elastic tape. The area at the base of the tail is locally anesthetized by subcutaneous infiltration with 2% procaine. The ventral caudal artery and vein are isolated, and a cannula made of polyethylene (PE) 10-20 tubing (fused together by heat) is passed into the lower abdominal aorta and vena cava, respectively. The cannula is secured, heparinized (1,000 I.U./ml), sealed and the wound is closed. The animals are placed in plastic restraining cages in an upright position. The cannula is attached to s Statham P23Db pressure transducer, and pulsatile blood pressure is recorded to 10-15 minutes with a Gould Brush recorder. (Chan et al., (Drug Development Res., 18:75-94, 1989).
Angiotensin II (human sequence, Sigma Chem. Co., St. Louis, Mo.) of 0.05 and 0.1 ug/kg i.v. is injected into all rats (predosing response.). Then a test compound, vehicle or a known angiotensin II antagonist is administered i.v., i.p. or orally to each set of rats. The two doses of angiotensin II are given to each rat again at 30, 60, 90, 120, 180, 240 and 300 minutes post dosing the compound or vehicle. The vasopressor response of angiotensin II by a compound is calculated using the vasopressor response (increase in systolic blood pressure) of angiotensin II of each rat predosing the compound as 100%. A compound is considered active if at 30 mg/kg i.v. it antagonized at least 50% of the response.

[1] = 10 mg/kg i.v., AII 0.05 mcg/kg, 30 min post dose
[2] = 10 mg/kg i.v., AII 0.05 mcg/kg, 30 min post dose, listed as Ex. 20
[3] = 10 mg/kg i.v., AII 0.1 mcg/kg, 30 min post dose, listed as Ex. 20
[4] = 10 mg/kg i.v., AII 0.1 mcg/kg, 30 min post dose
[5] = 20 mg/kg i.v., AII 0.05 mcg/kg, 60 min post dose
[6] = 20 mg/kg i.v., AII 0.05 mcg/kg, 60 min post dose, listed as Ex. 20
[7] = 20 mg/kg i.v., AII 0.05 mcg/kg, 90 min post dose
[8] = 20 mg/kg i.v., AII 0.05 mcg/kg, 90 min post dose, listed as Ex. 20
[9] = 20 mg/kg i.v., AII 0.05 mcg/kg, 120 min post dose
[10] = 20 mg/kg i.v., AII 0.05 mcg/kg, 120 min post dose, listed as Ex. 20
[11] = 20 mg/kg i.v., AII 0.05 mcg/kg, 180 min post dose
[12] = 20 mg/kg i.v., AII 0.05 mcg/kg, 180 min post dose, listed as Ex. 20
[13] = 20 mg/kg i.v., AII 0.05 mcg/kg, 240 min post dose
[14] = 20 mg/kg i.v., AII 0.05 mcg/kg, 240 min post dose, listed as Ex. 20
[15] = 20 mg/kg i.v., AII 0.05 mcg/kg, 300 min post dose, listed as Ex. 20
[16] = 20 mg/kg i.v., AII 0.05 mcg/kg, 300 min post dose
[17] = 20 mg/kg i.v., AII 0.1 mcg/kg, 60 min post dose
[18] = 20 mg/kg i.v., AII 0.1 mcg/kg, 60 min post dose, listed as Ex. 20
[19] = 20 mg/kg i.v., AII 0.1 mcg/kg, 90 min post dose
[20] = 20 mg/kg i.v., AII 0.1 mcg/kg, 90 min post dose, listed as Ex. 20
[21] = 20 mg/kg i.v., AII 0.1 mcg/kg, 120 min post dose
[22] = 20 mg/kg i.v., AII 0.1 mcg/kg, 120 min post dose, listed as Ex. 20
[23] = 20 mg/kg i.v., AII 0.1 mcg/kg, 180 min post dose
[24] = 20 mg/kg i.v., AII 0.1 mcg/kg, 180 min post dose, listed as Ex. 20
[25] = 20 mg/kg i.v., AII 0.1 mcg/kg, 240 min post dose, listed as Ex. 20
[26] = 20 mg/kg i.v., AII 0.1 mcg/kg, 240 min post dose
[27] = 20 mg/kg i.v., AII 0.1 mcg/kg, 300 min post dose, listed as Ex. 20
[28] = 20 mg/kg i.v., AII 0.1 mcg/kg, 300 min post dose

SMILES: CCCCc1nc2c(Br)cnn2c(=O)n1Cc1ccc(-c2ccccc2-c2nn[nH]n2)cc1 [Example 20]
- Response After AII [1]: 245
- Change [2]: 38 and 15
- Response After AII [2]: 215
- Control Before AII [2]: 207 and 200
- % Inhibition [1]: 34%
- Average Change [1]: 26.5
- Change [3]: 45 and 35
- Response After AII [3]: 260 and 235
- Control Before AII [3]: 215 and 200
- % Inhibition [4]: 36%
- Average Change [4]: 40
- Change [5]: 20
- Response After AII [5]: 200
- Response After AII [6]: 215
- Control Before AII [6]: 195 and 180
- % Inhibition [5]: 50%
- Average Change [5]: 20
- Response After AII [7]: 200
- Change [8]: 10 and 25
- Response After AII [8]: 225
- Control Before AII [8]: 215 and 175
- % Inhibition [7]: 56%
- Average Change [7]: 17.5
- Response After AII [9]: 250
- Change [10]: 45 and 20
- Response After AII [10]: 215
- Control Before AII [10]: 205 and 195
- % Inhibition [9]: 19%
- Average Change [9]: 32.5
- Response After AII [11]: 210
- Control Before AII [11]: 185
- Change [12]: 40 and 25
- Response After AII [12]: 225
- % Inhibition [11]: 19%
- Average Change [11]: 32.5
- Response After AII [13]: 230
- Control Before AII [13]: 185
- Change [14]: 45 and 40
- Response After AII [14]: 225
- % Inhibition [13]: -6%
- Average Change [13]: 42.5
- Change [15]: 50 and 35
- Response After AII [15]: 240 and 235
- Control Before AII [15]: 190 and 200
- % Inhibition [16]: -6%
- Average Change [16]: 42.5
- Response After AII [17]: 200
- Change [18]: 15 and 20
- Response After AII [18]: 215
- Control Before AII [18]: 200 and 180
- % Inhibition [17]: 72%
- Average Change [17]: 17.5
- Response After AII [19]: 245
- Change [20]: 40 and 30
- Response After AII [20]: 215
- Control Before AII [20]: 205 and 185
- % Inhibition [19]: 44%
- Average Change [19]: 35
- Response After AII [21]: 250
- Change [22]: 35 and 20
- Response After AII [22]: 215
- Control Before AII [22]: 215 and 195
- % Inhibition [21]: 56%
- Average Change [21]: 27.5
- Response After AII [23]: 225
- Change [24]: 30 and 60
- Control Before AII [24]: 195 and 165
- % Inhibition [23]: 28%
- Average Change [23]: 45
- Change [25]: 60 and 55
- Response After AII [25]: 260 and 245
- Control Before AII [25]: 200 and 190
- % Inhibition [26]: 8%
- Average Change [26]: 57.5
- Change [27]: 45 and 55
- Response After AII [27]: 265 and 245
- Control Before AII [27]: 220 and 190
- % Inhibition [28]: 20%
- Average Change [28]: 50
